# Reference: publication PMC6646405, “A quantitative, high-throughput method identifies protein–glycan interactions via mass spectrometry” (Communications Biology, 2019)
# “And” between values parts separate entries of the source, which are not always exact repeats. Equal entries are not always repeated.
# Columns and labels:
# [1] = target: human carbonic anhydrase type 1 (Homo sapiens, UniProt P00915); assay: Direct ESI-MS affinity of OSmod for the universal proxy protein (UniPproxy)
# [2] = tested on: family 51 carbohydrate binding module (CBM51); assay: CUPRA library screening and affinity, CBM51; settings: 25uM CBM51; mean of 4 DIi values, FigS3a
# Experimental: (§1) Unless otherwise noted, the measurements were performed at 25 °C. […] We identified specific ligands from the depletion index (DIi, Eq. 1) – the change in the fractional abundance (Fi, Eq. 2) ratio of ligand i-bound and free ^UniPproxy ions upon addition of GBP. Prior to calculating Fi, we treated each mass spectrum with the Sliding Window Adducts Removal Method (SWARM)[18] to remove contributions to the abundance of ^UniPproxy -OS^mod complex ions from adducts, formed by the ESI process, of neighbouring complex ions (Supplementary Fig. 2). Shown in Fig. 2a is a summary of the DIi measured by CUPRA screening of the 66-component library against S4 (50 μM). As expected, the average DIi for this negative control is close to 1.0 (0.99 ± 0.03). In contrast, CUPRA screening against the positive controls produced decreases in DIi for one or more of the library components. […] Application of CUPRA to human CD22, part of an important class of Neu5Ac-binding GBPs implicated in both innate and adaptive immunity, correctly identified HMO08 as a ligand (Supplementary Fig. 4a). CUPRA screening of MAA at high concentration (50 μM) identified HMO03 and GA06 as ligands. […]
# (§2) Using SWARM-treated mass spectra, DIi was calculated for each ligand from the ratio of the fractional abundances (Fi) of ligand (i)-bound and free ^UniPproxy ions in the presence (+GBP) and absence (-GBP) of GBP, Eqs. […]
# [3] = target: Cholera toxin B subunit homopentamer (CTB5) (Vibrio cholerae serotype O1, UniProt P01556); format: binding
# Sequence of Cholera toxin B subunit homopentamer (CTB5) (P01556 22-124 limits assumed): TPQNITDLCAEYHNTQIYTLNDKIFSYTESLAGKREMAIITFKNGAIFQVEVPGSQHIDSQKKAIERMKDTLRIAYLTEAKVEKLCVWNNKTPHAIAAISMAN
# [4] = target: streptavidin homotetramer (S4) (Streptomyces avidinii, UniProt P22629); assay: CUPRA library screening against negative control streptavidin; format: binding; design: key: ratio change on GBP addition; ~1.0 = no binding (negative control); settings: depletion index, 50 μM streptavidin
# Sequence of streptavidin homotetramer (S4) (P22629 25-183): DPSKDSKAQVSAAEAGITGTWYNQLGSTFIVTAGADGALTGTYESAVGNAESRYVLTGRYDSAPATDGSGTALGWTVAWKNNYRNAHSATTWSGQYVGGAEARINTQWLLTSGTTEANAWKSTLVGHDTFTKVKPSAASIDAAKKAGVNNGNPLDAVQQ
# human siglec-2 (CD22) = target: T1, human siglec-2 (CD22) (Homo sapiens, UniProt P20273); assay: CUPRA library screening and affinity, siglec-2; format: binding; settings: for average DI: mean of 4 DIi values
# T1 construct: Residues 1–332 of human Siglec-2 (MW 140 kDa, purity > 95%) were cloned in frame with human IgG1 Fc and a C-terminal His6; made in house
# T1 sequence (P20273 20-332): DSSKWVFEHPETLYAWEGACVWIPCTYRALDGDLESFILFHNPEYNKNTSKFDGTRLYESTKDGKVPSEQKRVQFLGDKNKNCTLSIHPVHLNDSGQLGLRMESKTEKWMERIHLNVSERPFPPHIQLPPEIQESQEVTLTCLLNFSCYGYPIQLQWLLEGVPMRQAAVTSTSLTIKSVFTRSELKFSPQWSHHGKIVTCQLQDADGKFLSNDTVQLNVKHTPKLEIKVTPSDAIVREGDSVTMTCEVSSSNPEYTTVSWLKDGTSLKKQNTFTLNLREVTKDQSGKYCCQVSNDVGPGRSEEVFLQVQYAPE
# [5] = tested on: Maackia amurensis lectins (MAA); assay: CUPRA library screening and affinity, MAA; format: binding; settings: 50uM MAA; mean of 4 DIi values, FigS3c
# Experimental: as §1, §2
# [6] = target: Sambucus nigra lectin (SNA) (Sambucus nigra, UniProt Q41358); format: binding
# Sequence of Sambucus nigra lectin (SNA) (Q41358 309-570 limits assumed): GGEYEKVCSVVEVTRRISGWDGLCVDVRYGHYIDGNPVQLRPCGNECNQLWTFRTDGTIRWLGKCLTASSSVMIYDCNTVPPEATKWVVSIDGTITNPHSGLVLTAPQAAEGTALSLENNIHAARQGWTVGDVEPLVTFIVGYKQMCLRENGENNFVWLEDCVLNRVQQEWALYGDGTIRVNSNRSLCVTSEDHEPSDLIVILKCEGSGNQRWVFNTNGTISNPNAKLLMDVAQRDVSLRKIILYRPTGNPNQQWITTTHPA
# Sequence of Sambucus nigra lectin (SNA) (Q41358 29-289 partner limits assumed): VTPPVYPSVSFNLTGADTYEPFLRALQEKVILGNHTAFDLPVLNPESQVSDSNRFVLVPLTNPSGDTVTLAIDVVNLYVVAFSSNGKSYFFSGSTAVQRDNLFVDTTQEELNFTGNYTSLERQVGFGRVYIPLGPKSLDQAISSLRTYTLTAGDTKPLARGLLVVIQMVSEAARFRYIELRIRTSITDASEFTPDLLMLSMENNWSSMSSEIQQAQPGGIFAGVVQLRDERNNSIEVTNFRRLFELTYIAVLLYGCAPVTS
# Sequence of human carbonic anhydrase type 1 (P00915 whole entry): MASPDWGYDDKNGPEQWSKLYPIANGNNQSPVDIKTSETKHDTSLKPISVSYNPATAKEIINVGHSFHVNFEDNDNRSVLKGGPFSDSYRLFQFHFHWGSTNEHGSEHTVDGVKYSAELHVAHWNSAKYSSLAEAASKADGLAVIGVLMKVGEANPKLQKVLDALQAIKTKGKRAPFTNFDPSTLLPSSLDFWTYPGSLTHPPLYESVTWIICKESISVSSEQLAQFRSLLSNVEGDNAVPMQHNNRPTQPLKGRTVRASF
smiles,measurement,setting,value
"CC(=O)N(CCOCCOCCNC(=O)C(Cc1ccccc1)NC(=O)C(Cc1ccccc1)NC(=O)CCCC(=O)NCCc1ccc(S(N)(=O)=O)cc1)C1OC(CO)C(OC2OC(CO)C(O)C(O)C2O)C(O)C1O (stereo not drawn) [HMO01, Galβ1-4Glc-CL]",Kd,[1],5.1 ± 1.4 µM
same,average DI,[2],1.026
same,DIi(2uM CTB5),[3],0.9935 and 0.9881 and 0.9983 and 0.9929
same,DIi(10uM CTB5),[3],0.9693 and 0.964 and 0.9533 and 0.9481
same,DIi(10uM CTB5 at 0C),[3],1.005 and 0.995 and 1.012 and 1.002
same,average DI,[3],0.9932 and 0.9587 and 1.004
same,average DI,[4]; mean of 4,0.9888
same,DIi(50uM S4),[4]; measurement 1 of 4,0.9878
same,DIi(50uM S4),[4]; measurement 2 of 4,0.986
same,DIi(50uM S4),[4]; measurement 3 of 4,0.9917
same,DIi(50uM S4),[4]; measurement 4 of 4,0.9898
same,average DI,human siglec-2 (CD22); 25uM CD22,1.013
same,DIi(25uM CD22),"human siglec-2 (CD22); 25uM CD22, replicate column 1 of 4",1.023
same,DIi(25uM CD22),"human siglec-2 (CD22); 25uM CD22, replicate column 2 of 4",1.029
same,DIi(25uM CD22),"human siglec-2 (CD22); 25uM CD22, replicate column 3 of 4",0.9963
same,DIi(25uM CD22),"human siglec-2 (CD22); 25uM CD22, replicate column 4 of 4",1.002
same,average DI,human siglec-2 (CD22); 25uM CD22 at 0C,1.021
same,DIi(25uM CD22 at 0C),"human siglec-2 (CD22); 25uM CD22 at 0C, replicate column 1 of 4",1.003
same,DIi(25uM CD22 at 0C),"human siglec-2 (CD22); 25uM CD22 at 0C, replicate column 2 of 4",1.007
same,DIi(25uM CD22 at 0C),"human siglec-2 (CD22); 25uM CD22 at 0C, replicate column 3 of 4",1.036
same,DIi(25uM CD22 at 0C),"human siglec-2 (CD22); 25uM CD22 at 0C, replicate column 4 of 4",1.04
same,average DI,[5],1.065
same,DIi(5uM SNA),[6],1.0284 and 1.03 and 1.033 and 1.035
same,average DI,[6],1.032
